This is an account of results in patent US20260166039A1 (SCHRÖDINGER, INC., priority 2022, published 2026).

Assay [1] deals with phosphorylation of Cdc2 Y15 (Wee1 substrate) in A427 cells. Description: Phosphorylated Cdc2 MSD Electrochemiluminescence Assay. Format: cell-based. The conditions noted are these: Homo sapiens. The gist of the method:
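Read-out: percent residual phospho-Cdc2 Y15 relative to DMSO and positive-control Wee1 inhibitor, measured by MSD electrochemiluminescence capture/detection antibody assay in cell lysates. A427 cells received duplicate 3-fold compound dilution series 20 h post-seeding, with 6 h total incubation at 37 °C.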

A further assay has as its target T1, Wee1 kinase domain (Homo sapiens, UniProt P30291).
T1 construct: Wee1 kinase domain was purchased from Carna (catalog #05-177); purchased Carna 05-177
Nature of the assay: Wee1 Kinase Biochemical Assay (ADP-Glo). The conditions noted are these: 15 uM ATP. The gist of the method:
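Compounds tested against 1 nM Wee1 kinase domain in Tris buffer containing 20 mM MgCl2, BSA and 2 mM DTT, with 15 uM ATP and poly(Lys,Tyr) substrate for 4 h at 25 °C. Luminescent ADP detection gave percent inhibition, normalized to DMSO and saturating inhibitor.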

Setting [2] is: A-427, class symbols, read-out: A427 pCDC2 MSD IC50.
[3] abbreviates: class symbols, 1 nM Wee1 enzyme, 4 hours at 25° C.

Like-named read-outs stand apart in the source and are kept apart here.

T1 sequence (P30291 299-569 limits assumed): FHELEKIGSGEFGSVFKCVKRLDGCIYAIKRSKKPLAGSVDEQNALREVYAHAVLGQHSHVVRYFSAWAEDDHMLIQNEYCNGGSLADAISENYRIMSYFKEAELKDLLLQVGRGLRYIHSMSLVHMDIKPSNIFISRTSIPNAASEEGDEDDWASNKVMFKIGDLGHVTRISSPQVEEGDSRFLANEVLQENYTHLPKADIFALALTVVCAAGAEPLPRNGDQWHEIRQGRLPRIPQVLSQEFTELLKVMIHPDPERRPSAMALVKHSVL

For orientation: IC50 means the concentration that inhibits the measured activity by half. Take `CNCc1cccc(N2c3nc(Nc4ccc(N5CCS(=N)(=O)CC5)cc4)ncc3[C@@]3(C)COC(C)(C)C[C@@H]23)n1` (single isomer, unassigned) [Example 49]: the IC50 is 100 to 1000 nM in assay [1] (A-427, pCDC2 MSD) and less than 10 nM against Wee1 kinase domain (Wee1 kinase domain, ADP-Glo).
With `Cc1cc(Nc2ncc3c(n2)N(c2cccc([C@H]4CCCN4)n2)[C@@H]2CC(C)(C)OC[C@]32C)ccc1N1CCOCC1` (single isomer, unassigned) [Example 522], the 50% inhibitory concentration (IC50) was 100 to 1000 nM in assay [1] (setting [2]) and less than 10 nM at Wee1 kinase domain (setting [3]).
The like results for `CC1(C)C[C@H]2N(c3cccc(N=S(C)(C)=O)n3)c3nc(Nc4ccc(N5CCN6CCC[C@@H]6C5)cc4)ncc3[C@@]2(C)CO1` (single isomer, unassigned) [Example 505] were, in that order, 100 to 1000 nM and less than 10 nM.
The like results for `CNCc1cccc(N2c3nc(Nc4ccc(N5[C@@H]6COC[C@H]5C6)cc4)ncc3[C@@]3(C)COC(C)(C)C[C@@H]23)n1` (single isomer, unassigned) [Example 479] were, in that order, 100 to 1000 nM and less than 10 nM.
Take `CNCc1cccc(N2c3nc(Nc4ccc(N5C6CCC5COC6)cc4)ncc3[C@@]3(C)COC(C)(C)C[C@@H]23)n1` (single isomer, unassigned) [Example 87]: the IC50 in assay [1] (A-427, pCDC2 MSD) was 100 to 1000 nM; against Wee1 kinase domain (Wee1 kinase domain, ADP-Glo), less than 10 nM.
As for `Cn1cc([C@@H]2C[C@H]2C(=O)Nc2ncc3c(n2)N(c2cccc(N=S(C)(C)=O)n2)[C@@H]2CC(C)(C)OC[C@]32C)cn1` (single isomer, unassigned) [Example 403], the 50% inhibitory concentration (IC50) is 100 to 1000 nM in assay [1] (setting [2]) and less than 10 nM on Wee1 kinase domain (setting [3]).
`CN1CCC(n2cnc(Nc3ncc4c(n3)N(c3cccc(N=S(C)(C)=O)n3)[C@@H]3CC(C)(C)OC[C@]43C)c2)CC1` (single isomer, unassigned) [Example 205]: the 50% inhibitory concentration (IC50) in assay [1] (A-427, pCDC2 MSD) was less than 100 nM; on Wee1 kinase domain (Wee1 kinase domain, ADP-Glo) it was less than 10 nM.
On the same counts, the results for `CN1CCC(c2ncc(Nc3ncc4c(n3)N(c3cccc(N=S(C)(C)=O)n3)[C@@H]3CC(C)(C)OC[C@]43C)s2)CC1` (single isomer, unassigned) [Example 221] are less than 100 nM and less than 10 nM.
As to `CN1C[C@H]2C[C@@H]1CN2c1ccc(Nc2ncc3c(n2)N(c2cccc(N4CCCC4=O)n2)[C@@H]2CC(C)(C)OC[C@]32C)cc1F` [Example 638, 1-(6-((4bR,8aR)-2-((3-fluoro-4-((1R,4R)-5-methyl-2,5-diazabicyclo[2.2.1]heptan-2-yl)phenyl)amino)-4b,7,7-trimethyl-4b,7,8,8a-tetrahydropyrano[3′,4′:4,5]pyrrolo[2,3-d]pyrimidin-9(5H)-yl)pyridin-2-yl)pyrrolidin-2-one], the results for the IC50 (in assay [1] (setting [2]); at Wee1 kinase domain (setting [3])) were 100 to 1000 nM and less than 10 nM, respectively.
`CN1CCC(n2cc(Nc3ncc4c(n3)N(c3cccc(C(C)(C)O)n3)[C@@H]3CC(C)(C)OC[C@]43C)cn2)CC1` (single isomer, unassigned) [Example 11]: the 50% inhibitory concentration (IC50) in assay [1] (A-427, pCDC2 MSD) was 100 to 1000 nM; on Wee1 kinase domain (Wee1 kinase domain, ADP-Glo), less than 10 nM.
Turning to `CNC1(c2cccc(N3c4nc(Nc5ccc(C6CCN(C)CC6)c(C)c5)ncc4[C@@]4(C)COC(C)(C)C[C@@H]34)n2)CC1` (single isomer, unassigned) [Example 575], the figures for the half-inhibitory concentration (IC50) (in assay [1] (setting [2]); against Wee1 kinase domain (setting [3])) were less than 100 nM and less than 10 nM, respectively.
In the case of `CC1(C)C[C@H]2N(c3cccc(N4CCCC4=O)n3)c3nc(Nc4ccc(O[C@@H]5CCNC5)cc4)ncc3[C@@]2(C)CO1` [Example 616, 1-(6-((4bR,8aR)-4b,7,7-trimethyl-2-((4-(((R)-pyrrolidin-3-yl)oxy)phenyl)amino)-4b,7,8,8a-tetrahydropyrano[3′,4′:4,5]pyrrolo[2,3-d]pyrimidin-9(5H)-yl)pyridin-2-yl)pyrrolidin-2-one], the IC50 is 100 to 1000 nM in assay [1] (setting [2]) and less than 10 nM against Wee1 kinase domain (setting [3]).
For the compound `CN1CCC[C@@H]1c1ccc(Nc2ncc3c(n2)N(c2cccc(N=S(C)(C)=O)n2)[C@@H]2CC(C)(C)OC[C@]32C)cn1` (single isomer, unassigned) [Example 210], the concentration for half-maximal inhibition (IC50) in assay [1] (A-427, pCDC2 MSD) was 100 to 1000 nM; against Wee1 kinase domain (Wee1 kinase domain, ADP-Glo) it was less than 10 nM.
